Molecules are shown by their SMILES.

The target of assay [1] is T1, IDO (Homo sapiens (Human), UniProt P14902). Kind of assay: LLE_IDO_ABS_DR (IDO assay, method not described).
Another assay addresses Human IDO1 (Homo sapiens (Human), UniProt P14902). Kind of assay: IDO Kynurenine Assay with Human IDO1/HEK293 Cells. In kind it is cell-based. The settings on record: HEK293 cells with human IDO1; read-out: HEK human IDO-1 (IC50). On the procedure: IDO Kynurenine Assay with Human IDO1/HEK293 Cells
Human IDO1/HEK293 cells were seeded at 10,000 cells per 50 uL per well with RPMI/phenol red free media contains 10% FBS in a 384-well black wall clear bottom tissue culture plate (Matrix Technologies LLC) 125 nL of certain concentration of compound was then added to each well using ECHO liquid handling systems. The cells were incubated for 20 hours in 37° C. incubator with 5% CO2.
The compound treatments were stopped by adding Trichloroacetic Acid (Sigma-Aldrich) to a final concentration at 0.2%. The cell plate was further incubated at 50° C. for 30 minute. The equal volume supernatant (20 uL) and 0.2% (w/v) Ehrlich reagent (4-dimethylaminobenzaldehyde, Sigma-Aldrich) in glacial acetic acid were mixed in a new clear bottom 384-well plate. This plate was then incubated at room temperature for 30 minute. The absorbance at 490 nm was measured on Envision plate reader.

In assay [2] the target is T1, IDO. Kind of assay: Kynurenine assay in IFN-γ-stimulated Hela cells. The settings on record: 20 h, read-out: Hela Kyurenine (IC50). In kind it is cell-based. An outline of the steps:
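Hela cells adhered 5-6 h, then received inhibitor (top dose 30 μM, 3-fold dilutions to 1.5 nM) plus 100 ng/mL human IFN-γ to induce IDO, 20 h at 37° C. TCA added, 30 min at 50° C hydrolyses N-formylkynurenine to kynurenine. Supernatant mixed with Ehrlich reagent, 10 min RT, absorbance 490 nm.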

Human IDO1, sequence (P14902 whole entry): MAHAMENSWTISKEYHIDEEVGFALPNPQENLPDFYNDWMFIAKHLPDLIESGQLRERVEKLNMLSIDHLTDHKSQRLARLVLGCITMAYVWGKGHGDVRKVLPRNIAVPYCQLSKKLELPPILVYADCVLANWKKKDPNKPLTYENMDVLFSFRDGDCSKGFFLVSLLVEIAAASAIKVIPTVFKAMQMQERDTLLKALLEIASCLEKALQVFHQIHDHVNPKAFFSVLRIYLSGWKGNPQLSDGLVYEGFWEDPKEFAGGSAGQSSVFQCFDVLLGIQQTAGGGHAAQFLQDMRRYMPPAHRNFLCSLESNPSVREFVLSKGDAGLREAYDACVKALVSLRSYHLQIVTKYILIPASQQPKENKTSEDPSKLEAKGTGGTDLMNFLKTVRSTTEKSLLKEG
T1 sequence (P14902 whole entry): as above

In the case of `C=CC(c1ccccc1)c1cc(-c2ccccc2-c2nnn[nH]2)cc(NC(=O)Nc2ccc(C)cc2)c1OCCC` (racemic) [Example 8, 1-(5-(1-Phenylallyl)-4-propoxy-2′-(1H-tetrazol-5-yl)-[1,1′-biphenyl]-3-yl)-3-(p-tolyl)urea], the IC50 (commonly the concentration that gives 50% inhibition) on IDO [1] is 10 nM; on Human IDO1, 30 nM.
For `Cc1ccc(NC(=O)Nc2cc(-c3ccc(Cl)c(C(=O)O)c3)ccc2Oc2ccccc2C(C)(C)C)cc1` [Example 1, 4′-(2-tert-Butylphenoxy)-4-chloro-3′-(3-p-tolylureido)biphenyl-3-carboxylic acid], the results for the IC50 at Human IDO1 and at IDO [2] were 6180 nM and 2420 nM, respectively.
With `CCCOc1c(CCC)cc(-c2ccccc2-c2nnn[nH]2)cc1NC(=O)Nc1ccc(C)cc1` [Example 16, 1-(4-Propoxy-5-propyl-2′-(1H-tetrazol-5-yl)-[1,1′-biphenyl]-3-yl)-3-(p-tolyl)urea], the IC50 against IDO [1] and at Human IDO1 was 30 nM in each case.
In the case of `C/C=C/Cc1cc(-c2ccccc2-c2nnn[nH]2)cc(NC(=O)Nc2ccc(C)cc2)c1OCCC` [Example 19, (E)-1-(5-(But-2-en-1-yl)-4-propoxy-2′-(1H-tetrazol-5-yl)-[1,1′-biphenyl]-3-yl)-3-(p-tolyl)urea], the IC50 against IDO [1] came out at 20 nM; at Human IDO1, 30 nM.
Regarding `CCCCc1cc(-c2ccccc2-c2nnn[nH]2)cc(NC(=O)Nc2ccc(C)cc2)c1OCCC` [Example 22, 1-(5-Butyl-4-propoxy-2′-(1H-tetrazol-5-yl)-[1,1′-biphenyl]-3-yl)-3-(p-tolyl)urea], the IC50 on IDO [1] was 20 nM; on Human IDO1 it was 5.92 nM.
Turning to `CCCOc1c(/C=C/CC(F)(F)F)cc(-c2ccccc2-c2nnn[nH]2)cc1NC(=O)Nc1ccc(C)cc1` [Example 29, (E)-1-(4-Propoxy-2′-(1H-tetrazol-5-yl)-5-(4,4,4-trifluorobut-1-en-1-yl)-[1,1′-biphenyl]-3-yl)-3-(p-tolyl)urea], the IC50 against IDO [1] and at Human IDO1 was 30 nM throughout.
On to `CCCOc1c(/C=C/C=C(F)F)cc(-c2ccccc2-c2nnn[nH]2)cc1NC(=O)Nc1ccc(C)cc1` [Example 30, (E)-1-(5-(4,4-Difluorobuta-1,3-dien-1-yl)-4-propoxy-2′-(1H-tetrazol-5-yl)-[1,1′-biphenyl]-3-yl)-3-(p-tolyl)urea], for which the IC50 was 9.95 nM on IDO [1] and 20 nM at Human IDO1.
Turning to `COc1ccccc1Oc1ccc(-c2ccc(OC)c(C(=O)O)c2)cc1NC(=O)Nc1ccc(C)cc1` [Example 69, 4-methoxy-4′-(2-methoxyphenoxy)-3′-(3-p-tolylureido)biphenyl-3-carboxylic acid], the half-inhibitory concentration (IC50) at Human IDO1 came to 6190 nM; on IDO [2] it was 2090 nM.
Turning to `COc1ccc(-c2ccc(Oc3cccc4c3OC(C)(C)C4)c(NC(=O)Nc3ccc(C)cc3)c2)cc1C(=O)O` [Example 135, 4′-(2,2-dimethyl-2,3-dihydrobenzofuran-7-yloxy)-4-methoxy-3′-(3-p-tolylureido)biphenyl-3-carboxylic acid], the IC50 amounted to 5170 nM at Human IDO1 and 2240 nM at IDO [2].
For `CC(C)(C)c1ccccc1Oc1ccc(-c2cccc(C(=O)O)c2)cc1NC(=O)Nc1ccc(OC(F)F)cc1` [Example 223, 4′-(2-tert-butylphenoxy)-3′-(3-(4-(difluoromethoxy)phenyl)ureido) biphenyl-3-carboxylic acid], in that order: 7500 nM and 2640 nM.
As for `Cc1ccccc1NC(=O)Nc1cc(-c2cccc(C(=O)O)c2)ccc1Oc1ccccc1C(C)(C)C` [Example 224, 4′-(2-tert-butylphenoxy)-3′-(3-o-tolylureido) biphenyl-3-carboxylic acid], the IC50 on Human IDO1 came to 7500 nM; on IDO [2] it was 1020 nM.
For `Cc1ccc(NC(=O)Nc2cc(-c3cccc(C(=O)O)c3)ccc2Oc2ccccc2C(C)(C)C)cc1` [Example 226, 4′-(2-tert-butylphenoxy)-3′-(3-p-tolylureido) biphenyl-3-carboxylic acid], the IC50 on Human IDO1 came out at 9190 nM; at IDO [2] it was 790 nM.
For the compound `COc1cccc(NC(=O)Nc2cc(-c3cccc(C(=O)O)c3)ccc2Oc2ccccc2C(C)(C)C)c1` [Example 229, 4′-(2-tert-butylphenoxy)-3′-(3-(3-methoxyphenyl)ureido)biphenyl-3-carboxylic acid], the figures for the IC50 on Human IDO1 and on IDO [2] were 7500 nM and 1890 nM, respectively.
For the compound `COc1ccc(NC(=O)Nc2cc(-c3cccc(C(=O)O)c3)ccc2Oc2ccccc2C(C)(C)C)cc1` [Example 230, 4′-(2-tert-butylphenoxy)-3′-(3-(4-methoxyphenyl)ureido)biphenyl-3-carboxylic acid], the IC50 came to 7500 nM on Human IDO1 and 1810 nM on IDO [2].
For `CC(C)(C)c1ccccc1Oc1ccc(-c2cccc(C(=O)O)c2)cc1NC(=O)Nc1ccc(Cl)cc1` [Example 232, 4′-(2-tert-butylphenoxy)-3′-(3-(4-chlorophenyl)ureido)biphenyl-3-carboxylic acid], the IC50 is 7500 nM on Human IDO1 and 1800 nM at IDO [2].
For `CC(C)(C)c1ccccc1Oc1ccc(-c2cccc(C(=O)O)c2)cc1NC(=O)Nc1ccc(Br)cc1` [Example 233, 3′-(3-(4-bromophenyl)ureido)-4′-(2-tert-butylphenoxy) biphenyl-3-carboxylic acid] the same measures were 7500 nM and 2890 nM.
As to `Cc1ccccc1NC(=O)Nc1cc(-c2cc(Cl)cc(C(=O)O)c2)ccc1Oc1ccccc1C(C)(C)C` [Example 238, 4′-(2-tert-butylphenoxy)-5-chloro-3′-(3-o-tolylureido) biphenyl-3-carboxylic acid], the IC50 against IDO [1] was 10000 nM; at IDO [2] it was 440 nM.
`Cc1ccc(NC(=O)Nc2cc(-c3cc(Cl)cc(C(=O)O)c3)ccc2Oc2ccccc2C(C)(C)C)cc1` [Example 246, 4′-(2-tert-butylphenoxy)-5-chloro-3′-(3-p-tolylureido) biphenyl-3-carboxylic acid]: the figures for the IC50 against IDO [1] and at IDO [2] were 3940 nM and 700 nM, respectively.
For the compound `Cc1ccc(NC(=O)Nc2cc(-c3ccc(C(=O)O)c(Cl)c3)ccc2Oc2ccccc2C(C)(C)C)cc1` [Example 257, 4′-(2-tert-butylphenoxy)-3-chloro-3′-(3-p-tolylureido) biphenyl-4-carboxylic acid], the IC50 is 1250 nM at IDO [1] and 440 nM at IDO [2].
For `O=C(Nc1ccc(Cl)cc1)Nc1cc(-c2ccccc2-c2nnn[nH]2)cc(CC2CC2)c1OC1CCOCC1` [Example 331] the same measures were 810 nM and 520 nM.
For `COc1ccc(-c2cnc(Oc3ccccc3C(C)(C)C)c(NC(=O)Nc3cccc(C)c3)c2)cc1C(=O)O` [Example 334], in that order: 16700 nM and 380 nM.
On to `COc1ccc(-c2cnc(Oc3ccccc3C(C)(C)C)c(NC(=O)Nc3ccccc3Cl)c2)cc1C(=O)O` [Example 336], for which the IC50 at IDO [1] stood at 1110 nM; at IDO [2], 760 nM.
Take `Cc1ccc(NC(=O)Nc2cc(-c3cc(Cl)cc(C(=O)O)c3)cnc2Oc2ccccc2C(C)(C)C)cc1` [Example 337]: the IC50 was determined as 7500 nM at Human IDO1 and 2260 nM on IDO [2].
Take `Cc1ccc(NC(=O)Nc2cc(-c3cncc(C(=O)O)c3)cnc2Oc2ccccc2)cc1` [Example 339]: the IC50 on Human IDO1 was 6180 nM; at IDO [2], 2420 nM.
